Results on three molecules are retold here after ChEMBL document CHEMBL5724806, “Unraveling interindividual differences and functional consequences of gut microbial metabolism of immunosuppressants” (2024).

Holding throughout (type): ADME
A short description of series [1]: The drug is tested on Streptococcus salivarius strain: DSM20560 for biotransformation under anaerobic condition. The drug concentrations were measured over 6 timepoints collected between 0 and 12 hours of incubation by liquid-chromatography-coupled mass spectrometry (LC–MS). Set-up: dose 5 uM, timepoint 0, 1.5, 3, 6, 9, 12 hours. The following applies: 5 µM.
A short description of series [2]: The drug is tested on Clostridium ramosum strain: DSM1402 for biotransformation under anaerobic condition. The drug concentrations were measured over 6 timepoints collected between 0 and 12 hours of incubation by liquid-chromatography-coupled mass spectrometry (LC–MS). Details: dose 5 uM, timepoint 0, 1.5, 3, 6, 9, 12 hours. The following applies: thomasclavelia ramosa, 5 µM.

The nature of series [3]: The drug is tested on Streptococcus mitis strain: DSM12643 for biotransformation under microaerobic condition. The drug concentrations were measured over 6 timepoints collected between 0 and 12 hours of incubation by liquid-chromatography-coupled mass spectrometry (LC–MS). Set-up: dose 5 uM, timepoint 0, 1.5, 3, 6, 9, 12 hours. Conditions: 5 µM.
The nature of series [4]: The drug is tested on the gut metagenome community of A-03 with ENA study accession number: PRJEB31790 for biotransformation under anaerobic condition. The drug concentrations were measured over 7 timepoints collected between 0 and 12 hours of incubation by liquid-chromatography-coupled mass spectrometry (LC–MS). Set-up: dose 5 uM, timepoint 0, 0.75, 1.5, 3, 6, 9, 12 hours. The following applies: 5 µM.

The nature of series [5]: The drug is tested on Bacteroides uniformis strain: DSM6597 for biotransformation under anaerobic condition. The drug concentrations were measured over 6 timepoints collected between 0 and 12 hours of incubation by liquid-chromatography-coupled mass spectrometry (LC–MS). Set-up: dose 5 uM, timepoint 0, 1.5, 3, 6, 9, 12 hours. Conditions: 5 µM.
Series [6] can be described thus: The drug is tested on the gut metagenome community of P-01 with ENA study accession number: PRJEB31790 for biotransformation under anaerobic condition. The drug concentrations were measured over 7 timepoints collected between 0 and 12 hours of incubation by liquid-chromatography-coupled mass spectrometry (LC–MS). Set-up: dose 5 uM, timepoint 0, 0.75, 1.5, 3, 6, 9, 12 hours. The following applies: 5 µM.

Series [7] in a line: The drug is tested on Gemella haemolysans strain: DSM107751 for biotransformation under microaerobic condition. The drug concentrations were measured over 6 timepoints collected between 0 and 12 hours of incubation by liquid-chromatography-coupled mass spectrometry (LC–MS). Set-up: dose 5 uM, timepoint 0, 1.5, 3, 6, 9, 12 hours. Conditions: 5 µM.
A short description of series [8]: The drug is tested on Bacteroides caccae strain: DSM19024 for biotransformation under anaerobic condition. The drug concentrations were measured over 6 timepoints collected between 0 and 12 hours of incubation by liquid-chromatography-coupled mass spectrometry (LC–MS). Set-up: dose 5 uM, timepoint 0, 1.5, 3, 6, 9, 12 hours. The following applies: 5 µM.
Series [9] in a line: The drug is tested on the gut metagenome community of A-03 with ENA study accession number: PRJEB31790 for biotransformation under microaerobic condition. The drug concentrations were measured over 7 timepoints collected between 0 and 12 hours of incubation by liquid-chromatography-coupled mass spectrometry (LC–MS). Conditions: 5 µM. Details: dose 5 uM, timepoint 0, 0.75, 1.5, 3, 6, 9, 12 hours.

Series [10] in a line: The drug is tested on Bacteroides fragilis strain: DSM2151 for biotransformation under anaerobic condition. The drug concentrations were measured over 6 timepoints collected between 0 and 12 hours of incubation by liquid-chromatography-coupled mass spectrometry (LC–MS). Conditions: 5 µM. Set-up: dose 5 uM, timepoint 0, 1.5, 3, 6, 9, 12 hours.
Series [11] in a line: The drug is tested on Lactobacillus gasseri strain: DSM20243 for biotransformation under microaerobic condition. The drug concentrations were measured over 6 timepoints collected between 0 and 12 hours of incubation by liquid-chromatography-coupled mass spectrometry (LC–MS). Set-up: dose 5 uM, timepoint 0, 1.5, 3, 6, 9, 12 hours. The following applies: 5 µM.
Series [12] is described as follows: The drug is tested on the gut metagenome community of T-01 with ENA study accession number: PRJEB31790 for biotransformation under anaerobic condition. The drug concentrations were measured over 7 timepoints collected between 0 and 12 hours of incubation by liquid-chromatography-coupled mass spectrometry (LC–MS). Set-up: dose 5 uM, timepoint 0, 0.75, 1.5, 3, 6, 9, 12 hours. The following applies: 5 µM.

A short description of series [13]: The drug is tested on Coprococcus comes strain: ATCC27758 for biotransformation under anaerobic condition. The drug concentrations were measured over 6 timepoints collected between 0 and 12 hours of incubation by liquid-chromatography-coupled mass spectrometry (LC–MS). Set-up: dose 5 uM, timepoint 0, 1.5, 3, 6, 9, 12 hours. Conditions: 5 µM.
Series [14] can be described thus: The drug is tested on the gut metagenome community of T-04 with ENA study accession number: PRJEB31790 for biotransformation under microaerobic condition. The drug concentrations were measured over 7 timepoints collected between 0 and 12 hours of incubation by liquid-chromatography-coupled mass spectrometry (LC–MS). Details: dose 5 uM, timepoint 0, 0.75, 1.5, 3, 6, 9, 12 hours. Conditions: 5 µM.

The nature of series [15]: The drug is tested on the gut metagenome community of A-04 with ENA study accession number: PRJEB31790 for biotransformation under microaerobic condition. The drug concentrations were measured over 7 timepoints collected between 0 and 12 hours of incubation by liquid-chromatography-coupled mass spectrometry (LC–MS). Details: dose 5 uM, timepoint 0, 0.75, 1.5, 3, 6, 9, 12 hours. The following applies: 5 µM.

A short description of series [16]: The drug is tested on the gut metagenome community of P-04 with ENA study accession number: PRJEB31790 for biotransformation under microaerobic condition. The drug concentrations were measured over 7 timepoints collected between 0 and 12 hours of incubation by liquid-chromatography-coupled mass spectrometry (LC–MS). Details: dose 5 uM, timepoint 0, 0.75, 1.5, 3, 6, 9, 12 hours. The following applies: 5 µM.

The nature of series [17]: The drug is tested on Lactobacillus ruminis strain: ATCC25644 for biotransformation under anaerobic condition. The drug concentrations were measured over 6 timepoints collected between 0 and 12 hours of incubation by liquid-chromatography-coupled mass spectrometry (LC–MS). Set-up: dose 5 uM, timepoint 0, 1.5, 3, 6, 9, 12 hours. Conditions: ligilactobacillus ruminis, 5 µM.

Series [18] is described as follows: The drug is tested on Lactobacillus paracasei strain: ATCC27092 for biotransformation under anaerobic condition. The drug concentrations were measured over 6 timepoints collected between 0 and 12 hours of incubation by liquid-chromatography-coupled mass spectrometry (LC–MS). Details: dose 5 uM, timepoint 0, 1.5, 3, 6, 9, 12 hours. The following applies: lacticaseibacillus paracasei, 5 µM.

Series [19] in a line: The drug is tested on Clostridium bolteae strain: DSM15670 for biotransformation under anaerobic condition. The drug concentrations were measured over 6 timepoints collected between 0 and 12 hours of incubation by liquid-chromatography-coupled mass spectrometry (LC–MS). The following applies: enterocloster bolteae, 5 µM. Details: dose 5 uM, timepoint 0, 1.5, 3, 6, 9, 12 hours.

The nature of series [20]: The drug is tested on Streptococcus salivarius strain: DSM20560 for biotransformation under microaerobic condition. The drug concentrations were measured over 6 timepoints collected between 0 and 12 hours of incubation by liquid-chromatography-coupled mass spectrometry (LC–MS). The following applies: 5 µM. Details: dose 5 uM, timepoint 0, 1.5, 3, 6, 9, 12 hours.
A short description of series [21]: The drug is tested on Ruminococcus gnavus strain: ATCC29149 for biotransformation under anaerobic condition. The drug concentrations were measured over 6 timepoints collected between 0 and 12 hours of incubation by liquid-chromatography-coupled mass spectrometry (LC–MS). Set-up: dose 5 uM, timepoint 0, 1.5, 3, 6, 9, 12 hours. Conditions: mediterraneibacter gnavus, 5 µM.

Series [22] can be described thus: The drug is tested on the gut metagenome community of A-02 with ENA study accession number: PRJEB31790 for biotransformation under anaerobic condition. The drug concentrations were measured over 7 timepoints collected between 0 and 12 hours of incubation by liquid-chromatography-coupled mass spectrometry (LC–MS). Set-up: dose 5 uM, timepoint 0, 0.75, 1.5, 3, 6, 9, 12 hours. Conditions: 5 µM.

The nature of series [23]: The drug is tested on Bacteroides stercoris strain: HM 1036 for biotransformation under anaerobic condition. The drug concentrations were measured over 6 timepoints collected between 0 and 12 hours of incubation by liquid-chromatography-coupled mass spectrometry (LC–MS). Set-up: dose 5 uM, timepoint 0, 1.5, 3, 6, 9, 12 hours. The following applies: 5 µM.

With `COc1c(C)c2c(c(O)c1C/C=C(\C)CCC(=O)OCCN1CCOCC1)C(=O)OC2` [MYCOPHENOLATE MOFETIL], the “Bacterial Biotransformation” value in series [1] is recorded as “Compound metabolized”; in [2] it was “Compound NOT metabolized”; in [3], “Compound metabolized”; in [4] it was “Compound metabolized”; in [5], “Compound metabolized”; in [6] it was “Compound metabolized”. For the same molecule, the “Bacterial Biotransformation” value in series [7] was “Compound metabolized”; in [8], “Compound metabolized”; in series [9] it was “Compound metabolized”; in series [10] it was “Compound NOT metabolized”; in [11], “Compound NOT metabolized”; in [12] it was “Compound metabolized”. Besides, the “Bacterial Biotransformation” value is given as “Compound NOT metabolized” in series [13]; “Compound metabolized” in series [14]; “Compound metabolized” in series [15]; “Compound metabolized” in series [16]; “Compound metabolized” in series [17]; “Compound metabolized” in series [18]. Further, the “Bacterial Biotransformation” value is reported as “Compound NOT metabolized” in series [19]; “Compound metabolized” in series [20]; “Compound NOT metabolized” in series [21]; “Compound metabolized” in series [22]; “Compound metabolized” in series [23].

As for `COc1c(C)c2c(c(O)c1C/C=C(\C)CCC(=O)O)C(=O)OC2` [MYCOPHENOLIC ACID], the “Bacterial Biotransformation” value in series [1], in series [2], in series [3], in [4], in series [5] and in [6] was “Compound NOT metabolized” each time. Further, the “Bacterial Biotransformation” value in [7], in [8], in [9], in series [10], in series [11] and in series [12] was “Compound NOT metabolized” throughout. For the same molecule, the “Bacterial Biotransformation” value in series [13], in series [14], in series [15], in series [16], in series [17] and in [18] was “Compound NOT metabolized” in each case. Moreover, the “Bacterial Biotransformation” value in series [19], in [20], in series [21], in series [22] and in [23] was “Compound NOT metabolized” each time.

For the molecule `C[C@]12C=CC(=O)C=C1CC[C@@H]1[C@@H]2[C@@H](O)C[C@@]2(C)[C@H]1CC[C@]2(O)C(=O)CO` [PREDNISOLONE], the “Bacterial Biotransformation” value is recorded as “Compound NOT metabolized” in [1]; “Compound NOT metabolized” in [2]; “Compound NOT metabolized” in series [3]; “Compound metabolized” in series [4]; “Compound NOT metabolized” in series [5]; “Compound metabolized” in series [6]. The “Bacterial Biotransformation” value is reported as “Compound NOT metabolized” in series [7]; “Compound NOT metabolized” in [8]; “Compound metabolized” in series [9]; “Compound NOT metabolized” in series [10]; “Compound NOT metabolized” in [11]; “Compound NOT metabolized” in [12]. Also, the “Bacterial Biotransformation” value is given as “Compound NOT metabolized” in series [13]; “Compound NOT metabolized” in series [14]; “Compound metabolized” in series [15]; “Compound metabolized” in series [16]; “Compound NOT metabolized” in series [17]; “Compound NOT metabolized” in series [18]. Also, the “Bacterial Biotransformation” value was “Compound NOT metabolized” in [19]; “Compound NOT metabolized” in series [20]; “Compound metabolized” in [21]; “Compound metabolized” in series [22]; “Compound NOT metabolized” in [23].
